Assay: Dissolution in polyethylene glycol 400 (appearance of solution, microscope)
Assay type: physicochemical
Details: 20 mg phospholipid DHGPC in 1 ml polyethylene glycol 400, 21° C.
Excerpt: Polyethylene glycol 400 served as solvent. […] This was confirmed under a microscope.
Microscope images confirmed this.

Q: With `CCCCCCC(=O)OC[C@H](COP(=O)([O-])OCC[N+](C)(C)C)OC(=O)CCCCCC` [DHGPC, diheptanoyl glycerophosphocholine] as the molecule, how does the appearance of solution read?
A: clear solution
